In publication PMC9303312, “Balancing Histone Deacetylase (HDAC) Inhibition and Drug‐likeness: Biological and Physicochemical Evaluation of Class I Selective HDAC Inhibitors” (Chemmedchem, 2022):
In brackets after ≈: the same amount, converted by molar mass. Where two headings read alike, the source gives them in different places.

How the values were obtained:
HDAC1 [1] = target: T1, HDAC1 (Homo sapiens, UniProt Q13547); experiment: In vitro HDAC inhibition preincubation assay (ZMAL substrate)
HDAC3/NcoR2 = HDAC3/NcoR2 (Homo sapiens, UniProt O15379); experiment: as above
[2] = Solubility in PBS buffer by OECD flask method with HPLC quantification; type: physicochemical
HDAC2 [3] = target: T2, HDAC2 (Homo sapiens, UniProt Q92769); experiment: In vitro HDAC inhibition preincubation assay (ZMAL substrate)
[4] = LogD7.4 by OECD slow-stirring method with HPLC quantification; details: 1-octanol/PBS buffer (mutually saturated)
human recombinant HDAC6 = target: T3, human recombinant HDAC6 (Homo sapiens, UniProt Q9UBN7); experiment: In vitro HDAC inhibition preincubation assay (ZMAL substrate)
T3 sequence (Q9UBN7 1-1215): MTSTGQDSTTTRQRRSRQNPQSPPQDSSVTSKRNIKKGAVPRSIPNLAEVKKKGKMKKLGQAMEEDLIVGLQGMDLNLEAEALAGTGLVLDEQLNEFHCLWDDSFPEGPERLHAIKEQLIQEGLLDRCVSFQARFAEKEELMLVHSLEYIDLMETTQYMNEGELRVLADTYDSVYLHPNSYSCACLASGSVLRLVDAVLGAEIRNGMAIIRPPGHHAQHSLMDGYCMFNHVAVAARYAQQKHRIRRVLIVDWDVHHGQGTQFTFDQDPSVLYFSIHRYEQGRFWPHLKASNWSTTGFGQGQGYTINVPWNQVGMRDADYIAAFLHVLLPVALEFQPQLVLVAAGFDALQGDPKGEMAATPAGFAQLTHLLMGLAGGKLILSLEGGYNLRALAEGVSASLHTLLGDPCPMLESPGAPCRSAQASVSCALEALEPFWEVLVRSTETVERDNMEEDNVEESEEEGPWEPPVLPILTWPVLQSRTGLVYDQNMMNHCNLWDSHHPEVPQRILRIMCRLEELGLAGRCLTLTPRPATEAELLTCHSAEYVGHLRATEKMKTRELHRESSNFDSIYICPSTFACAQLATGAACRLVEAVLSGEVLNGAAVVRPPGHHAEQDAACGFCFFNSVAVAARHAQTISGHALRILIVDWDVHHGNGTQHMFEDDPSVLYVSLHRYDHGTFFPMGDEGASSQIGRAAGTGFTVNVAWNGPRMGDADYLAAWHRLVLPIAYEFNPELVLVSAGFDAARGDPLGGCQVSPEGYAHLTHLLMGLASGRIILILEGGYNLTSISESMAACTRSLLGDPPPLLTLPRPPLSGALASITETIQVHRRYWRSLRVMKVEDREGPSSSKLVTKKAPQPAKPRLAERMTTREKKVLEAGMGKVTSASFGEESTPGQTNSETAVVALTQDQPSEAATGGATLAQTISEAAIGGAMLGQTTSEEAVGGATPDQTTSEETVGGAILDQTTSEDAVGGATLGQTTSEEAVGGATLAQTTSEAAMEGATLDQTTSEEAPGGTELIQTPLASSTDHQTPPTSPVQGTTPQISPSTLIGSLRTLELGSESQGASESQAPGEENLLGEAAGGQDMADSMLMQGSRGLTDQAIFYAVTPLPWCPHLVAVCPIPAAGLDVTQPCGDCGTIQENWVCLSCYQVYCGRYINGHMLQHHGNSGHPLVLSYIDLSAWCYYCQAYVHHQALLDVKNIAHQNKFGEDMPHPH

HDAC3 = HDAC3 (Homo sapiens, UniProt O15379); experiment: Binding kinetics via the Progression Method; type: biochemical
Method: (§1) To determine the binding mechanism at the respective HDAC isoform, a series of progression curves were generated, using fixed concentrations of enzyme, substrate, and different inhibitor concentrations. The in situ AMC release was monitored continuously by fluorescence readings recorded every 30 s for 60 or 90 min at 37 °C. The data of each progression curve were fitted to the appropriate equation (Prism 9.1.0 for MacOS). For inhibitors showing slow‐binding Mechanism I&II (Figure 5) time‐dependent product formation follows Eq. 1: (Eq. 1) P=vsst+vin-vss/kobs1-e^-kobst
(§2) where [P] is the amount of generated AMC, which directly correlates with the amount of deacetylated substrate over time [t]. V in and v ss are the initial and final steady‐state velocities of product formation and k obs is the apparat first‐order rate constant for the conversion from the initial velocity to the steady‐state velocity. It characterizes the formation of an enzyme–inhibitor equilibrium.
Fast‐on/fast‐off inhibitors. […]
deacetylase activities were evaluated at varying inhibitor concentrations. […]
concentrations were chosen based on the previously determined IC50 values. […]
determined using a series of substrate concentrations. […]
(§3) 90 minutes at 37°C. The relationship between AMC concentration and relative fluorescence units
(RFU) was determined and the measured RFU were transformed into the respective AMC […]

HDAC1 [5] = target: T1, HDAC1; experiment: Binding kinetics via the Progression Method; type: biochemical; details: relationship between kobs and [I]; triplicates
Method: as §1, §2
Fast‐on/fast‐off inhibitors. […] In this case Eq. 1 simplifies as follows: (Eq. 2) P=vsst
Therefore, the deacetylation rate in absence (v 0) and presence (v i) of the inhibitor is constant over time. […] [I] and [S] are the inhibitor and substrate concentrations, respectively and K m is the Michaelis‐Menten constant.
Slow‐binding inhibitors. The slow‐binding Mechanisms I & II are distinguished by their respective relationships between k obs and the inhibitor concentration. For the single‐step slow‐binding Mechanism I the relationship between inhibitor concentration and k obs is linear. The association and dissociation rate constants (k 1 & k −1, see Figure 5) can be obtained by fitting k obs as a function of [I] to Eq. 4. (Eq. 4) kobs=k-1+k11+S/KmI
The secondary association and dissociation rate constants k 2 & k −2 (see Figure 5) as well as the equilibrium dissociation constant K i,1 of the initial inhibitor‐enzyme encounter complex [EI] can be obtained by fitting k obs as a function of [I] (Eq. 5. (Eq. 5) kobs=k-2+k2/I+Ki,11+S/KmI
Determination of binding kinetics via the Progression Method.[14] HDAC1 and HDAC3
deacetylase activities were evaluated at varying inhibitor concentrations. Appropriate inhibitor
concentrations were chosen based on the previously determined IC50 values. To ensure substrate
excess during the experiment, the substrate concentration was set to five times Km. Km was
determined using a series of substrate concentrations.
For the progression curves, the
respective enzyme was incubated with the fluorogenic substrate and inhibitor in assay buffer
as §3
(RFU) was determined and the measured RFU were transformed into the respective AMC
concentration in µM. […]

[6] = test system: BT‐474 breast cancer cell line; experiment: WST-8 cell viability assay; details: Homo sapiens, BT-474, 120 h, read-out: IC50 BT‐474
[7] = test system: T‐47D breast cancer cell line; experiment: WST-8 cell viability assay; details: Homo sapiens, T47D, 120 h, read-out: IC50 T‐47D
[8] = test system: MCF‐7 breast cancer cell line; experiment: WST-8 cell viability assay; details: Homo sapiens, MCF7, 120 h, read-out: IC50 MCF‐7
MCF‐7 cells = experiment: Modified wound healing (migration) assay; type: cell-based, human; details: MCF-7, 10 μM, followed over 97 h, compared to DMSO control
Method: Migration assay. 3D printed (size: 0.5 mm gap) culture-inserts (custom made) were used for pre-
After preincubation with DMSO (1%) or HDACi (10µM) for 24 h medium was removed, wells were washed once with PBS and fresh FCS-free medium with same inhibitor added.
a Axiovert 200 microscope (Carl-Zeiss, Jena, Germany). Migration speed was quantified as reduced scratch wound over time.

[9] = test system: acetylated α‐tubulin (HDAC6 activity) in MCF‐7 cells; experiment: Western blot target engagement in MCF-7 cells: acetylated α-tubulin; type: cell-based, human; details: MCF-7 cell lysates after 24-hour treatment
HDAC2 [10] = target: T2, HDAC2; experiment: IC50-shift experiments (varied preincubation time); type: biochemical; design: purchased BPS Bioscience 50052; details: triplicates
Method: into OptiPlate-96 black micro-plates (PerkinElmer).
Afterwards, the fluorogenic substrate ZMAL
The total assay volume (50 µL,
max. […] Subsequently, 50 µL trypsin solution (0.4
enzymes and the respective inhibitor dilutions were preincubated at 20 °C for 5 to 120 minutes.
Afterwards, the assay protocol was continued as stated above. Compounds were tested in
triplicates and the assay was rerun if necessary. The respective IC50 values and P95 confidence
intervals were determined using Prism 9 for MacOS.

HDAC1 [11] = target: T1, HDAC1; experiment: IC50-shift experiments (varied preincubation time); type: biochemical; details: triplicates
HDAC1 [12] = target: T1, HDAC1; experiment: 100-fold Jump-Dilution experiments; type: biochemical; details: diluted inhibitor concentration as indicated per compound, vehicle [DMSO 1 %]=111.9
[13] = 25 °C, pH 7.4, aqueous buffer, thermodynamic from solid, pH=7.4, flask method, 25 °C, 72 h, mean ±SD, read-out: Solubility
[14] = pH 7.4, LogD7.4, slow-stirring method, 1-octanol/PBS buffer pH 7.4, 25 °C, 48 h
[15] = HDAC2 IC50, preincubation 5 min, preincubation time 5 min at 20°C
[16] = HDAC2 IC50, preincubation 15 min, preincubation time 15 min at 20°C
[17] = HDAC2 IC50, preincubation 30 min, preincubation time 30 min at 20°C
[18] = HDAC2 IC50, preincubation 60 min, preincubation time 60 min at 20°C
[19] = HDAC2 IC50, preincubation 120 min, preincubation time 120 min at 20°C

Sequence of HDAC3/NcoR2 (O15379 whole entry): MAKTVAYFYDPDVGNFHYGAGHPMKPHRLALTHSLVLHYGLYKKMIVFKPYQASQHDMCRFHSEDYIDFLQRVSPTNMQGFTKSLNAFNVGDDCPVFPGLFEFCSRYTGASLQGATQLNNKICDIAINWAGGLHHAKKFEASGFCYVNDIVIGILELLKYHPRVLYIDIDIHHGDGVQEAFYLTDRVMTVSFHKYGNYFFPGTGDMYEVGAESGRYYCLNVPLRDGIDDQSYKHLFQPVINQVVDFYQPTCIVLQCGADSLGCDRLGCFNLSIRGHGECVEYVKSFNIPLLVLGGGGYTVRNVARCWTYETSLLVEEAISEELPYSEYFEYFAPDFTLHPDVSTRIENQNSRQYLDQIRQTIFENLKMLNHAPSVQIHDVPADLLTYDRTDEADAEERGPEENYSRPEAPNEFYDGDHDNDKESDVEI
Sequence of HDAC3/NcoR2 (Q9Y618 395-489 partner limits assumed): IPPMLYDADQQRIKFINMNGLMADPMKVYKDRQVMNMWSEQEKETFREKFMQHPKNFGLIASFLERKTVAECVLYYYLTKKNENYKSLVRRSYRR
T1 sequence (Q13547 whole entry): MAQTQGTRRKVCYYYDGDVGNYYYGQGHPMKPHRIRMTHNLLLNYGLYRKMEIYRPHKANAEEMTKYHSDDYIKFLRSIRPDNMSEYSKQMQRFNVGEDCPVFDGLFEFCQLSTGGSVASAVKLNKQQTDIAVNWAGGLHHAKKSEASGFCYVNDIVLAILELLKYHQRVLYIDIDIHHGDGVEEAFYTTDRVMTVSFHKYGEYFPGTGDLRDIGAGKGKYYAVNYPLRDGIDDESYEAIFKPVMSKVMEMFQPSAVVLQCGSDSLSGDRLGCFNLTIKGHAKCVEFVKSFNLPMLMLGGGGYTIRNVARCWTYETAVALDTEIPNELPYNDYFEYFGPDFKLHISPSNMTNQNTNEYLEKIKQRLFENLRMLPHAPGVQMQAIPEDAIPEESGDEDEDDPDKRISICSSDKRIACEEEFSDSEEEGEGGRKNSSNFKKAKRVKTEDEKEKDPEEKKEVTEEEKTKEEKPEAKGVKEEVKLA
T2 sequence (Q92769 whole entry): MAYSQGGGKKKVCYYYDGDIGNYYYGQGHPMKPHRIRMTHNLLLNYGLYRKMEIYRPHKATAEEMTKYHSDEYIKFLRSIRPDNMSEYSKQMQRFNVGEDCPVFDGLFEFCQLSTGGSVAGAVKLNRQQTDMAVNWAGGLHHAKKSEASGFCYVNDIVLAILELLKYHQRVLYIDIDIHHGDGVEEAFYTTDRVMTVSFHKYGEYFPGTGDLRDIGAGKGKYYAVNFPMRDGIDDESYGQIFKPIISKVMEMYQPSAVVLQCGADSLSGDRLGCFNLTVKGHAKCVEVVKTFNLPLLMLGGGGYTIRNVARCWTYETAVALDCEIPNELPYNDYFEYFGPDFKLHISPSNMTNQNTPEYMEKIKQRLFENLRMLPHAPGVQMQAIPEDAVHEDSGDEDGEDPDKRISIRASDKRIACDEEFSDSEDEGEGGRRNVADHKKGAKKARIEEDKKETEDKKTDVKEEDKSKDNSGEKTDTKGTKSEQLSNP
Sequence of HDAC3 (O15379 whole entry): as the sequence (O15379 whole entry) above
Sequence of HDAC3 (Q9Y618 395-489 partner limits assumed): as the sequence (Q9Y618 395-489 partner limits assumed) above

Row | Compound | IC50 (HDAC1 [1]) | IC50 (HDAC3/NcoR2) | solubility at 72 h [2, 13] | IC50 (HDAC2 [3]) | logD at 48 h [4, 14] | IC50 (human recombinant HDAC6) | IC50 [6] | IC50 [7] | IC50 [8] | other results
1 | CC(=O)Nc1ccc(C(=O)Nc2cc(-c3ccnc(F)c3)ccc2N)cc1 [6 i] | 329 ± 20.8 nM | 5.87 µM | 3.72 ± 0.44 µg/mL (≈ 10.2 µM) | 211 ± 5.4 nM | 2.2 | > 10 µM |  |  |  | 
2 | CC(=O)Nc1ccc(C(=O)Nc2cc(-c3cccnc3F)ccc2N)cc1 [6 h] | 153 ± 22.1 nM | 2.87 µM | 1.58 ± 0.14 µg/mL (≈ 4.34 µM) | 228 ± 7.8 nM | 1.79 | > 10 µM |  |  |  | 
3 | CC(=O)Nc1ccc(C(=O)Nc2cc(-c3ccccn3)ccc2N)cc1 [6 f] | 207 ± 4.4 nM | 17.4 µM | 42 ± 0.19 µg/mL (≈ 121 µM) | 333 ± 5.1 nM | 1.77 | > 10 µM |  |  |  | 
4 | O=C(CCCCCCC(=O)Nc1ccccc1)NO [vorinostat, reference compound] |  |  | 255 ± 3.71 µg/mL (≈ 965 µM) |  | 0.99 |  |  |  |  | binding mechanism at HDAC3 (HDAC3): fast‐on/fast‐off binding kinetic; solubility at 72 h ([2]; 25 °C, pH 7.4, aqueous buffer, thermodynamic from solid, PBS buffer pH 7.4, single experiment II, read-out: Solubility (II)): 259 µg/mL (≈ 980 µM); solubility at 72 h ([2]; pH 7.4, PBS buffer pH 7.4, mean of two experiments (SD 0.00371), read-out: Solubility): 255 µg/mL (≈ 966 µM); solubility at 72 h ([2]; pH 7.4, PBS buffer pH 7.4, single experiment I, read-out: Solubility (I)): 252 µg/mL (≈ 952 µM); logD at 48 h ([4]; pH 7.4, LogD(7.4) (I), single slow-stirring experiment I): 1.01; logD at 48 h ([4]; pH 7.4, LogD(7.4) (II), single slow-stirring experiment II): 0.962; logD at 48 h ([4]; pH 7.4, LogD(7.4) (III), single slow-stirring experiment III): 0.999; binding mechanism at HDAC1 (HDAC1 [5]): fast‐on/fast‐off binding kinetic
5 | CN(C)c1ccc(C(=O)N(CC(=O)NC2CCCCC2)Cc2ccc(C(=O)Nc3cc(-c4ccncc4)ccc3N)cc2)cc1 [10 b] | 41.1 ± 3.7 nM | > 3.33 µM | 1.99 ± 0.04 µg/mL (≈ 3.29 µM) | 85.5 ± 11.6 nM | 2.68 | > 10 µM | 2.93 ± 0.43 µM | 1450 ± 90 nM | 4.33 ± 1.54 µM | 
6 | CN(C)c1ccc(C(=O)N(CC(=O)NC(C)(C)C)Cc2ccc(C(=O)Nc3cc(-c4ccncc4)ccc3N)cc2)cc1 [10 c] |  | 16.8 µM | 7.48 ± 0.33 µg/mL (≈ 12.9 µM) | 59.3 ± 7.9 nM | 2.29 | > 10 µM | 2.55 ± 0.4 µM | 1580 ± 480 nM | 1.62 ± 0.32 µM | effect on cell migration (wound closure) (MCF‐7 cells): attenuated cell migration comparably and significantly; effect on cell migration (wound closure) (MCF‐7 cells; listed as LSH‐A54): attenuated cell migration significantly; acetylated α‐tubulin (western blot) [9]: non‐detectable; IC50 (HDAC2 [10]; [15]): 117 nM; IC50 (HDAC2 [10]; [16]): 106 nM; IC50 (HDAC2 [10]; [17]): 109 nM; IC50 (HDAC2 [10]; [18]): 84 nM; IC50 (HDAC2 [10]; [19]): 78.1 nM
7 | Nc1ccccc1NC(=O)c1ccc(CNC(=O)OCc2cccnc2)cc1 [entinostat, reference compound] |  |  |  |  |  |  | 7.09 ± 1 µM | 2910 ± 890 nM | 8.98 ± 3 µM | effect on cell migration (wound closure) (MCF‐7 cells): no significant effect on cell migration; acetylated α‐tubulin (western blot) [9]: non‐detectable; binding mechanism at HDAC1 (HDAC1 [5]): slow-binding Mechanism II
8 | CC(=O)Nc1ccc(C(=O)Nc2cc(-c3ccncc3)ccc2N)cc1 [6 d] | 13.2 ± 1 nM | 8.91 µM | 16.5 ± 0.3 µg/mL (≈ 47.6 µM) | 77.2 ± 9.2 nM | 1.75 | > 10 µM | > 8 µM | 1010 ± 190 nM | 11.1 ± 3.85 µM | selectivity for HDAC1 over HDAC3 (HDAC1 [1]; ratio of IC50 values HDAC3/HDAC1): 675 fold; effect on cell migration (wound closure) (MCF‐7 cells): attenuated cell migration significantly; acetylated α‐tubulin (western blot) [9]: non‐detectable; IC50 (HDAC2 [10]; [15]): 98.2 nM; IC50 (HDAC2 [10]; [16]): 89 nM; IC50 (HDAC2 [10]; [17]): 83 nM; IC50 (HDAC2 [10]; [18]): 77.4 nM; IC50 (HDAC2 [10]; [19]): 63.2 nM; IC50 (HDAC1 [11]; HDAC1 IC50, preincubation 5 min, preincubation time 5 min at 20°C): 54.1 nM; IC50 (HDAC1 [11]; HDAC1 IC50, preincubation 15 min, preincubation time 15 min at 20°C): 53.5 nM; IC50 (HDAC1 [11]; HDAC1 IC50, preincubation 30 min, preincubation time 30 min at 20°C): 44.5 nM; IC50 (HDAC1 [11]; HDAC1 IC50, preincubation 60 min, preincubation time 60 min at 20°C): 40.8 nM; IC50 (HDAC1 [11]; HDAC1 IC50, preincubation 120 min, preincubation time 120 min at 20°C): 25.4 nM; Final slope of progression curve after 100-fold dilution (HDAC1) (HDAC1 [12]): 39.4 RFU*min^−1; binding mechanism at HDAC1 (HDAC1 [5]): slow‐binding Mechanism II
9 | CC(=O)Nc1ccc(C(=O)Nc2cc(-c3cccs3)ccc2N)cc1 [6 c] |  |  | 0.74 ± 0.01 µg/mL (≈ 2.11 µM) |  | 2.8 |  |  |  |  | 
10 | CC(=O)Nc1ccc(C(=O)Nc2cc(-c3cccnc3)ccc2N)cc1 [6 e] | 76.7 ± 9.2 nM | 0.636 ± 0.0495 µM | 37.7 ± 3.61 µg/mL (≈ 109 µM) | 101 ± 5.4 nM | 1.7 | > 10 µM |  |  |  | 
11 | CC(=O)Nc1ccc(C(=O)Nc2ccccc2N)cc1 [CI‐994, tacedinaline, reference compound] |  |  | 200 ± 1.8 µg/mL (≈ 743 µM) |  | 0.84 |  |  |  |  | 
12 | CC(=O)Nc1ccc(C(=O)Nc2cc(-c3ccc(F)nc3)ccc2N)cc1 [6 g] | 93.5 ± 2.4 nM | 0.767 ± 0.0317 µM | 7.66 ± 0.08 µg/mL (≈ 21 µM) | 118 ± 4 nM | 1.97 | > 10 µM |  |  |  | 
13 | CN(C)c1ccc(C(=O)N(CC(=O)NCc2ccccc2)Cc2ccc(C(=O)Nc3cc(-c4ccncc4)ccc3N)cc2)cc1 [10 a] | 41.8 ± 0.2 nM | > 6.67 µM |  | 100 ± 2.6 nM |  |  | 3.93 ± 0.56 µM | 2570 ± 930 nM | 3.24 ± 0.82 µM | 
14 | CC(=O)Nc1ccc(C(=O)Nc2cc(-c3ccc(F)cc3)ccc2N)cc1 [6 b] | 4.4 ± 0.1 nM | 2 µM | 0.45 ± 0.04 µg/mL (≈ 1.24 µM) | 44.7 ± 6.9 nM | 3.41 | > 10 µM |  |  |  | 
15 | CC(=O)Nc1ccc(C(=O)Nc2cc(-c3ccccc3)ccc2N)cc1 [6 a] | 4.5 ± 0.1 nM | 3.96 µM | 1.49 ± 0.14 µg/mL (≈ 4.31 µM) | 51.4 ± 4.9 nM | 2.63 | > 10 µM |  |  |  | 
